The values that follow come from ChEMBL document CHEMBL1122657, “Dopaminergic agonists: comparative actions of amine and sulfonium analogues of dopamine” (J Med Chem, 1984).

Common to all, as to format: functional
A short description of assay [1]: Effect (0.3 uM) on K+-evoked release of [3H]acetylcholine from striatal slices of reserpine-alpha MPT treated mice evoked by two successive exposures (S1and S2) at 55 and 90 min after the start of perfusion.
Assay [2] is described as follows: Effect (1.0 uM) on K+-evoked release of [3H]acetylcholine from striatal slices of reserpine-alpha MPT treated mice evoked by two successive exposures (S1and S2) at 55 and 90 min after the start of perfusion.
A short description of assay [3]: Effect (3.0 uM) on K+-evoked release of [3H]acetylcholine from striatal slices of reserpine-alpha MPT treated mice evoked by two successive exposures (S1and S2) at 55 and 90 min after the start of perfusion.
Assay [4] is described as follows: Effect (0.0 uM) on K+-evoked release of [3H]acetylcholine from striatal slices of reserpine-alpha MPT treated mice evoked by two successive exposures (S1and S2) at 55 and 90 min after the start of perfusion.
The species entered for the next assay is Mus musculus. Nature of the assay: Compound concentration that causes inhibition of [3H]-acetyl choline release by 50% was determined using reserpine-alpha MPT treated mice striatal slices.

The structures appear in SMILES notation.

As a reminder, the IC50 is the point on the concentration scale where inhibition reaches its midpoint.

With `C[S+](C)c1ccc2cc(O)c(O)cc2c1.[Br-]`, the Ratio in assay [1] worked out at 0.85; in assay [2], 0.81; in assay [3], 0.86; in assay [4], 0.98.
For the compound `NC1CCc2cc(O)c(O)cc2C1` (stereo not drawn), the IC50 in the assay filed under Mus musculus was determined as 0.01 µM.
On the same count and under the same terms, as for `CC(N)Cc1ccc(O)c(O)c1` (stereo not drawn), the figure is 10 µM; as for `CN(C)CCc1ccc(O)c(O)c1`, 10 µM; as for `NCCc1ccc(O)c(O)c1` [DOPAMINE], 10 µM.
